{"source": "patent US5182280A", "about": "“Derivatives of benzimidazole and their use as antihistamines” (Laboratorios Del Dr. Esteve, S. A., priority 1990, dated 1993)", "key": {"[1]": {"tested_on": "death induced by compound 48/80", "assay": "\"In vivo\" antihistaminic activity: protection from death induced by 48/80 in the rat", "conditions": "ip, i.p. 60 min before 48/80 (0.5 mg/kg, i.v.), survival 4 h after, read-out: ED-50, protection from death induced by 48/80", "procedure": "The antihistaminic activity was studied by determining the protection in the face of the mortality induced by the product 48/80 in the rat. This test was realized in accordance with the technique described by C. J. E. Niemegeers and cols. (Arch, int. Pharmacodyn. 234, 164-176 (1978).\nThe products according to the present invention are administered i.p. to rats. After 60 minutes the compound 48/80 is administered (0.5 mg/kg, i.v.). The protective activity is defined as the survival of the rats 4 hours after the i.v. injection of 48/80.\nThe activity of the products at several doses in order to determine the dose capable of protecting 50% of the animals (ED-50) was studied."}, "[2]": {"assay": "Sedative effect: Irwin test (passivity and ataxia)", "format": "in vivo", "conditions": "rats, i.p., 1, 2 and 3 hours after treatment", "procedure": "Pas.: Passivity, sedation, prostration. Quantitative evaluation between 0 and 3. They were performed 1, 2 and 3 hours after the treatment.\nAtax.: Ataxia, the alterations in coordination in locomotion were evaluated. They were evaluated between 0 and 3. They were performed 1, 2 and 3 hours after the treatment."}, "[3]": {"tested_on": "sleep time induced by pentobarbital", "assay": "Sedative effect: potentiation of the sleep time induced by pentobarbital", "conditions": "for Potentiation of sleep time (in words): orally; for Potentiation of sleep time: 1 h before sodium pentobarbital (35 mg/kg, s.c.)", "description": "Study of the potentiation of the sleep time due to pentobarbital was carried out by following the method described by L. E. Allen and cols. […] The products studied were administered orally. […] The sleep time was compared with a group of control animals, treated only with sodium pentobarbital."}}, "data": [{"smiles": "CN(C)CCOC(c1ccccc1)c1ccccc1", "note": "[Difenhidramine, reference compound]", "values": [{"measurement": "ED50", "setting": "[1]", "result": 0.84, "unit": "mg/kg"}, {"measurement": "Atax. (ataxia; score 0 to 3)", "setting": "[2]; 40 mg/kg", "result": 0.9}, {"measurement": "Pas. (passivity, sedation, prostration; score 0 to 3)", "setting": "[2]; 40 mg/kg", "result": 0}, {"measurement": "Potentiation of sleep time (in words)", "setting": "[3]; 20 mg/kg", "result": "potentiates significantly the sleep time"}]}, {"smiles": "CCOCCn1c(CN2CCN(CCCCn3cc(Br)cn3)CC2)nc2ccccc21", "note": "[Example 1, 1-(2-Ethoxyethyl)-2-4-[4--(4-bromopyrazol-1-yl)butyl]piperazin-1-ylmethyl benzimidazole]", "values": [{"measurement": "ED50", "setting": "[1]", "result": 0.09, "unit": "mg/kg"}, {"measurement": "Atax. (ataxia; score 0 to 3)", "setting": "[2]; 80 mg/kg", "result": 1.3}, {"measurement": "Pas. (passivity, sedation, prostration; score 0 to 3)", "setting": "[2]; 80 mg/kg", "result": 1.4}]}, {"smiles": "CCOCCn1c(N2CCN(CCCCn3cc(Br)cn3)CC2)nc2ccccc21", "note": "[Example 2, 1-(2-Ethoxyethyl)-2-4-[4-(4-bromopyrazol1yl)butyl]piperazinyl benzimidazole]", "values": [{"measurement": "ED50", "setting": "[1]", "result": 2.7, "unit": "mg/kg"}, {"measurement": "Atax. (ataxia; score 0 to 3)", "setting": "[2]; 40 mg/kg", "result": 0.4}, {"measurement": "Pas. (passivity, sedation, prostration; score 0 to 3)", "setting": "[2]; 40 mg/kg", "result": 0}, {"measurement": "Atax. (ataxia; score 0 to 3)", "setting": "[2]; 80 mg/kg", "result": 1.3}, {"measurement": "Pas. (passivity, sedation, prostration; score 0 to 3)", "setting": "[2]; 80 mg/kg", "result": 0.7}]}, {"smiles": "CCOCCn1c(CN2CCN(CCCCn3ccnc3)CC2)nc2ccccc21", "note": "[Example 3, 1-(2-Ethoxyethyl)-2-4-[4-(imidazol-1-yl)butyl]piperazin-1-ylmethyl benzimidazole]", "values": [{"measurement": "ED50", "setting": "[1]", "result": 0.13, "unit": "mg/kg"}, {"measurement": "Atax. (ataxia; score 0 to 3)", "setting": "[2]; 80 mg/kg", "result": 0}, {"measurement": "Pas. (passivity, sedation, prostration; score 0 to 3)", "setting": "[2]; 80 mg/kg", "result": 0}]}, {"smiles": "CCOCCn1c(CN2CCN(CCCCn3cncn3)CC2)nc2ccccc21", "note": "[Example 4, 1-(2-Ethoxyethyl)-2-4-[4-(1,2,4-triazol-1-yl)butyl]piperazin-1-ylmethyl benzimidazole]", "values": [{"measurement": "ED50", "setting": "[1]", "result": 0.036, "unit": "mg/kg"}, {"measurement": "Atax. (ataxia; score 0 to 3)", "setting": "[2]; 80 mg/kg", "result": 0.5}, {"measurement": "Pas. (passivity, sedation, prostration; score 0 to 3)", "setting": "[2]; 80 mg/kg", "result": 0.4}]}, {"smiles": "CCOCCn1c(CN2CCN(CCCCn3cc(S(=O)(=O)O)cn3)CC2)nc2ccccc21", "note": "[Example 5, 1-(2-Ethoxyethyl)-2-4-[4-(4-sulfopyrazol-1-yl)butyl]piperazin-1-ylmethyl benzimidazole]", "values": [{"measurement": "ED50", "setting": "[1]", "result": 2.6, "unit": "mg/kg"}, {"measurement": "Atax. (ataxia; score 0 to 3)", "setting": "[2]; 80 mg/kg", "result": 0.4}, {"measurement": "Pas. (passivity, sedation, prostration; score 0 to 3)", "setting": "[2]; 80 mg/kg", "result": 0.4}]}, {"smiles": "CCOCCn1c(CN2CCN(CCCCn3cc(C(=O)O)cn3)CC2)nc2ccccc21", "note": "[Example 6, 1-(2-Ethoxyethyl)-2-4-[4-(4-carboxypyrazol-1-yl)butyl]piperazin-1-ylmethylbenzimidazole]", "values": [{"measurement": "ED50", "setting": "[1]", "result": 0.064, "unit": "mg/kg"}, {"measurement": "Atax. (ataxia; score 0 to 3)", "setting": "[2]; 80 mg/kg", "result": 0}, {"measurement": "Pas. (passivity, sedation, prostration; score 0 to 3)", "setting": "[2]; 80 mg/kg", "result": 0}]}, {"smiles": "CCOCCn1c(CN2CCN(CCCCn3cccn3)CC2)nc2ccccc21", "note": "[Example 7, 1-(2-Ethoxyethyl)-2-4-[4-(pyrazol-1-yl)butyl]piperazin-1-ylmethyl benzimidazole]", "values": [{"measurement": "ED50", "setting": "[1]", "result": 0.02, "unit": "mg/kg"}, {"measurement": "Atax. (ataxia; score 0 to 3)", "setting": "[2]; 80 mg/kg", "result": 0}, {"measurement": "Pas. (passivity, sedation, prostration; score 0 to 3)", "setting": "[2]; 80 mg/kg", "result": 0}, {"measurement": "Atax. (ataxia; score 0 to 3)", "setting": "[2]; 160 mg/kg", "result": 0.3}, {"measurement": "Pas. (passivity, sedation, prostration; score 0 to 3)", "setting": "[2]; 160 mg/kg", "result": 0}, {"measurement": "Potentiation of sleep time", "setting": "[3]; 80 mg/kg orally", "result": 10, "unit": "%"}, {"measurement": "Potentiation of sleep time", "setting": "[3]; 160 mg/kg orally", "result": 11, "unit": "%"}, {"measurement": "Potentiation of sleep time", "setting": "[3]; 320 mg/kg orally", "result": 22, "unit": "%"}, {"measurement": "Potentiation of sleep time (in words)", "setting": "[3]; 320 mg/kg, maximum dose tested", "result": "does not potentiate the sleep time"}]}, {"smiles": "CCOCCn1c(CN2CCN(CCCCn3cccc3)CC2)nc2ccccc21", "note": "[Example 8, 1-(2-Ethoxyethyl)-2-4-[4-(pyrrol-1-yl)butyl]piperazin-1-yl-methyl benzimidazole]", "values": [{"measurement": "ED50", "setting": "[1]", "result": 0.02, "unit": "mg/kg"}, {"measurement": "Atax. (ataxia; score 0 to 3)", "setting": "[2]; 80 mg/kg", "result": 0}, {"measurement": "Pas. (passivity, sedation, prostration; score 0 to 3)", "setting": "[2]; 80 mg/kg", "result": 0}]}, {"smiles": "CCOCCn1c(N2CCN(CCCCn3cc(C(=O)O)cn3)CC2)nc2ccccc21", "note": "[Example 9, 1-(2-Ethoxyethyl)-2-4-[4-(4-carboxypryazol-1-yl)butyl]piperazine-1-yl benzimidazole]", "values": [{"measurement": "ED50", "setting": "[1]", "result": 0.84, "unit": "mg/kg"}, {"measurement": "Atax. (ataxia; score 0 to 3)", "setting": "[2]; 80 mg/kg", "result": 0}, {"measurement": "Pas. (passivity, sedation, prostration; score 0 to 3)", "setting": "[2]; 80 mg/kg", "result": 0}]}, {"smiles": "CCOCCn1c(CN2CCN(CCCCn3cnc(Cl)c3Cl)CC2)nc2ccccc21", "note": "[Example 10]", "values": [{"measurement": "ED50", "setting": "[1]", "result": 0.66, "unit": "mg/kg"}]}]}
